Values quoted from earlier work, collected in EP2508186A1, “Phenoxazinones or phenothiazones as inhibitors of amyloid formation” (Max-Delbrück-Centrum für Molekulare Medizin, priority 2011, dated 2012).

Target: T1, Aβ42 (Homo sapiens, UniProt P05067)
T1 construct: the amyloid-β 1-42 (Aβ42) peptide
Conditions: previous biochemical investigations; cited from earlier work

T1 sequence (P05067 672-713 limits assumed): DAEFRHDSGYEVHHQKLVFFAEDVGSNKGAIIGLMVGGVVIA

SMILES: CN(C)c1ccc2nc3ccc(=[N+](C)C)cc-3sc2c1 [methylene blue]
- effect on Aβ42 fibrillogenesis and A11-reactive oligomers: promotes Aβ42 fibrillogenesis and thereby reduces the amount of A11-reactive, potentially toxic amyloid oligomers
